How the values were obtained:
[1] = Organ weights after castration and testosterone replacement in young rats; assay type: in vivo, rat
Experimental: Pellets for testosterone-or placebo-implantation were received from Innovative Research of America, Sarasota, Fla., USA. To evaluate the effects of castration and testosterone replacement male wistar rats (3 months, n=21) were divided into three groups: Group 1, intact (shame operated, given a placebo-pellet by implantation under the dorsal skin, n=7), group 2, castrated (implantation of placebo-pellet, n=7) and group 3, castrated, but given a testosterone-implantate of 15 mg (n=7). 3 weeks after treatment rats were killed and penile tissue as well as blood samples were treated as described in example 1. The experimental study was conducted in accordance with the general federal law on the care and use of laboratory animals.
It was noted that the level of testosterone in the serum of young versus old rats were 4.436±1.1 and 0.57±0.17 ng/ml (mean±SD, n=4) respectively, pointing to a drop in the level of testosterone in circulation of aged animals. This is in agreement with Zirkins lab (Zirkin et al., Exp. Gerontol. 32:529-537 (1997); Zirkin and Chen, Biol. Reprod. 63:977-981 (2000)). In order to discern if the observed ageing related alteration in the expression of two splice variants of insulin receptor mRNA could be due to a declining androgen level in the ageing rats, we have performed orchiedectomy on young rats. One group of castrated rats received androgen releasing subcutanous implant. […] The effect of castration and andorgen-replacement of the insulin receptor mRNA expression in penile tissue of young rats is presented in FIG. 4a. […] Following castration, the appearance of the smaller splice variant was observed, the pattern resembling the old animals.

[2] = test system: insulin receptor mRNA splice variants Ex11+/Ex11-; test: RT-PCR and densitometric analysis of insulin receptor mRNA splice variants in penile tissue after castration and testosterone replacement; assay type: in vivo, rat
Experimental: Tissue samples (100-200 mg) were pulverized in liquid nitrogen. Total RNA was isolated using guanidium thocyanate, phenol-chloroform extraction (pecLab, Erlangen, Germany). The RNA was precipitated with isopropanol at −20° C. for 2 h, washed with 75% ethanol, dissolved in diethylpyrocarbonate water and quantified spectrometrically at 260 nm. The ratio of absorption of all preparations was between 1.8 and 2.0. To ensure that concentration was identical in each sample, the intensity of 28 sRNA was compared on an 1% agarose gelectrophoresis after ethidium bromide staining. Total RNA was stored at −80° C. until further use.
First strand cDNA synthesis was carried out using a commercially available kit (Gibco BRL). Briefly, 4 μg of total RNA was primed with 0,5 μg of oligo(dT)12-18 and incubated 10 min at 70° C. For each sample lx first strand puffer, 0,2M DTT, 10 mM dNTP's and 200U of Superscript II reverse transcriptase were added. Reverse transcription was performed at 42° C. for 50 min and stopped by heating for 15 min. at 70° C. The resulting cDNA templates were stored at −20° C. or directly used for PCR.
After a denaturation period of 3 min the PCR reaction was followed by 35 cycles of 95° C. for 60 sec., 60° C. for 60 sec. and 72° C. for 60 sec. PCR was performed with 6 μl cDNA, 10 mM of each dNTP, 5U Taq-Polymerase (Biotherm) and 50 pmol of both sense and antisense primers in PCR buffer. The final volume of each reaction was 50 μl. Reaction products (15 μl) were run on a 2.5% agarose gel. Primers used for PCR were: […]
Densitometric analysis of the insulin receptor mRNA splice variant levels was performed using the Image Quant 5.0 software.
For the proportion of the two insulin receptor variant mRNA levels, significance of the difference of the mean values was determined by unpaired student's t-test. The threshold for signigicance was set at p<0.05.
Pellets for testosterone-or placebo-implantation were received from Innovative Research of America, Sarasota, Fla., USA. […]

[3] = young (3 months) castrated male wistar rats, testosterone implant 15 mg, 3 weeks after treatment, n=7
[4] = young castrated rats with androgen supplementation (testosterone implant 15 mg), 3 weeks, FIG. 4b

SMILES: C[C@]12CC[C@H]3[C@@H](CCC4=CC(=O)CC[C@@]43C)[C@@H]1CC[C@@H]2O [testosterone]
- Penis weight in relation to body weight [1, 3]: 78.55 ± 5.54 mg/100 g body weight
- Prostate weight in relation to body weight [1, 3]: 92.37 ± 33.89 mg/100 g body weight
- Effect on castration-induced reduction of penis and prostate weight (in words) ([1]; young castrated rats, testosterone replacement): induced a reversal of this effect in both organs
- Relative proportion of Ex11+ insulin receptor mRNA in penis [2, 4]: 22.8%
- Relative proportion of Ex11- insulin receptor mRNA in penis [2, 4]: 77.2%
- Appearance of the smaller insulin receptor splice variant (Ex11-) in penile tissue (in words) ([2]; young castrated rats with androgen supplementation, FIG. 4a): this isoform persisted

— US20030232747A1, “Method of identifying a pharmaceutically active compound for the treatment of a condition caused by altered expression of the insulin receptor” (priority 2002, published 2003)
